Measured values published in the NIST ThermoML archive (doi:10.1021/je900672g).
± gives the expanded uncertainty stated by the source.

experiment: isobaric coefficient of expansion; settings: 318.15 K; 5000 kPa; Liquid; DSC

For `CCC#N` [propanenitrile], the “isobaric coefficient of expansion” value was 0.00135 ± 3.3e-05 1/K.

same assay, conditions: 318.15 K; 10000 kPa; Liquid; DSC

In order of falling “isobaric coefficient of expansion” value:
1. CCC#N [propanenitrile]  0.00129 ± 3.2e-05 1/K
2. C[N+](=O)[O-] [nitromethane]  0.00123 ± 3e-05 1/K
3. CC[N+](=O)[O-] [nitroethane]  0.00116 ± 2.8e-05 1/K
4. CCC[N+](=O)[O-] [1-nitropropane]  0.00109 ± 2.7e-05 1/K
5. N#Cc1ccccc1 [benzonitrile]  0.00084 ± 2.1e-05 1/K
6. O=[N+]([O-])c1ccccc1 [nitrobenzene]  0.00082 ± 2e-05 1/K

same assay, conditions: 318.15 K; 15000 kPa; Liquid; DSC

In order of rising “isobaric coefficient of expansion” value:
1. O=[N+]([O-])c1ccccc1 [nitrobenzene]  0.000802 ± 2e-05 1/K
2. N#Cc1ccccc1 [benzonitrile]  0.000826 ± 2e-05 1/K
3. CCC[N+](=O)[O-] [1-nitropropane]  0.00106 ± 2.6e-05 1/K
4. CC[N+](=O)[O-] [nitroethane]  0.00113 ± 2.8e-05 1/K
5. C[N+](=O)[O-] [nitromethane]  0.00119 ± 2.9e-05 1/K
6. CCC#N [propanenitrile]  0.00125 ± 3.1e-05 1/K

same assay, conditions: 318.15 K; 20000 kPa; Liquid; DSC

In order of rising “isobaric coefficient of expansion” value:
1. O=[N+]([O-])c1ccccc1 [nitrobenzene]  0.000792 ± 1.9e-05 1/K
2. N#Cc1ccccc1 [benzonitrile]  0.000811 ± 2e-05 1/K
3. CCC[N+](=O)[O-] [1-nitropropane]  0.00103 ± 2.5e-05 1/K
4. CC[N+](=O)[O-] [nitroethane]  0.0011 ± 2.7e-05 1/K
5. C[N+](=O)[O-] [nitromethane]  0.00116 ± 2.8e-05 1/K
6. CCC#N [propanenitrile]  0.0012 ± 2.9e-05 1/K

same assay, conditions: 318.15 K; 25000 kPa; Liquid; DSC

In order of rising “isobaric coefficient of expansion” value:
1. O=[N+]([O-])c1ccccc1 [nitrobenzene]  0.000774 ± 1.9e-05 1/K
2. N#Cc1ccccc1 [benzonitrile]  0.000798 ± 2e-05 1/K
3. CCC[N+](=O)[O-] [1-nitropropane]  0.000995 ± 2.4e-05 1/K
4. CC[N+](=O)[O-] [nitroethane]  0.00107 ± 2.6e-05 1/K
5. C[N+](=O)[O-] [nitromethane]  0.00113 ± 2.8e-05 1/K
6. CCC#N [propanenitrile]  0.00116 ± 2.8e-05 1/K

same assay, conditions: 318.15 K; 30000 kPa; Liquid; DSC

In order of falling “isobaric coefficient of expansion” value:
1. CCC#N [propanenitrile]  0.00113 ± 2.8e-05 1/K
2. C[N+](=O)[O-] [nitromethane]  0.00111 ± 2.7e-05 1/K
3. CC[N+](=O)[O-] [nitroethane]  0.00105 ± 2.6e-05 1/K
4. CCC[N+](=O)[O-] [1-nitropropane]  0.000976 ± 2.4e-05 1/K
5. N#Cc1ccccc1 [benzonitrile]  0.000789 ± 1.9e-05 1/K
6. O=[N+]([O-])c1ccccc1 [nitrobenzene]  0.000762 ± 1.9e-05 1/K

same assay, conditions: 318.15 K; 35000 kPa; Liquid; DSC

In order of falling “isobaric coefficient of expansion” value:
1. CCC#N [propanenitrile]  0.0011 ± 2.7e-05 1/K
2. C[N+](=O)[O-] [nitromethane]  0.00109 ± 2.7e-05 1/K
3. CC[N+](=O)[O-] [nitroethane]  0.00102 ± 2.5e-05 1/K
4. CCC[N+](=O)[O-] [1-nitropropane]  0.000952 ± 2.3e-05 1/K
5. N#Cc1ccccc1 [benzonitrile]  0.000773 ± 1.9e-05 1/K
6. O=[N+]([O-])c1ccccc1 [nitrobenzene]  0.000749 ± 1.8e-05 1/K

same assay, conditions: 318.15 K; 40000 kPa; Liquid; DSC

In order of rising “isobaric coefficient of expansion” value:
1. O=[N+]([O-])c1ccccc1 [nitrobenzene]  0.000737 ± 1.8e-05 1/K
2. N#Cc1ccccc1 [benzonitrile]  0.000764 ± 1.9e-05 1/K
3. CCC[N+](=O)[O-] [1-nitropropane]  0.000927 ± 2.3e-05 1/K
4. CC[N+](=O)[O-] [nitroethane]  0.000999 ± 2.4e-05 1/K
5. C[N+](=O)[O-] [nitromethane]  0.00106 ± 2.6e-05 1/K
6. CCC#N [propanenitrile]  0.00106 ± 2.6e-05 1/K

same assay, conditions: 318.15 K; 45000 kPa; Liquid; DSC

In order of rising “isobaric coefficient of expansion” value:
1. O=[N+]([O-])c1ccccc1 [nitrobenzene]  0.000729 ± 1.8e-05 1/K
2. N#Cc1ccccc1 [benzonitrile]  0.000754 ± 1.8e-05 1/K
3. CCC[N+](=O)[O-] [1-nitropropane]  0.00091 ± 2.2e-05 1/K
4. CC[N+](=O)[O-] [nitroethane]  0.000981 ± 2.4e-05 1/K
5. C[N+](=O)[O-] [nitromethane]  0.00104 ± 2.6e-05 1/K
6. CCC#N [propanenitrile]  0.00104 ± 2.5e-05 1/K

same assay, conditions: 318.15 K; 50000 kPa; Liquid; DSC

In order of rising “isobaric coefficient of expansion” value:
1. O=[N+]([O-])c1ccccc1 [nitrobenzene]  0.000718 ± 1.8e-05 1/K
2. N#Cc1ccccc1 [benzonitrile]  0.000743 ± 1.8e-05 1/K
3. CCC[N+](=O)[O-] [1-nitropropane]  0.000895 ± 2.2e-05 1/K
4. CC[N+](=O)[O-] [nitroethane]  0.000964 ± 2.4e-05 1/K
5. CCC#N [propanenitrile]  0.00102 ± 2.5e-05 1/K
6. C[N+](=O)[O-] [nitromethane]  0.00103 ± 2.5e-05 1/K

same assay, conditions: 318.15 K; 55000 kPa; Liquid; DSC

In order of rising “isobaric coefficient of expansion” value:
1. O=[N+]([O-])c1ccccc1 [nitrobenzene]  0.00071 ± 1.7e-05 1/K
2. CCC[N+](=O)[O-] [1-nitropropane]  0.00088 ± 2.2e-05 1/K
3. CC[N+](=O)[O-] [nitroethane]  0.000945 ± 2.3e-05 1/K
4. CCC#N [propanenitrile]  0.001 ± 2.5e-05 1/K
5. C[N+](=O)[O-] [nitromethane]  0.00101 ± 2.5e-05 1/K

same assay, conditions: 328.15 K; 5000 kPa; Liquid; DSC

In order of falling “isobaric coefficient of expansion” value:
1. CCC#N [propanenitrile]  0.00139 ± 3.4e-05 1/K
2. C[N+](=O)[O-] [nitromethane]  0.00129 ± 3.2e-05 1/K
3. CC[N+](=O)[O-] [nitroethane]  0.0012 ± 2.9e-05 1/K
4. CCC[N+](=O)[O-] [1-nitropropane]  0.00115 ± 2.8e-05 1/K
5. N#Cc1ccccc1 [benzonitrile]  0.000853 ± 2.1e-05 1/K
6. O=[N+]([O-])c1ccccc1 [nitrobenzene]  0.000837 ± 2.1e-05 1/K

same assay, conditions: 328.15 K; 10000 kPa; Liquid; DSC

In order of falling “isobaric coefficient of expansion” value:
1. CCC#N [propanenitrile]  0.00133 ± 3.3e-05 1/K
2. C[N+](=O)[O-] [nitromethane]  0.00126 ± 3.1e-05 1/K
3. CC[N+](=O)[O-] [nitroethane]  0.00116 ± 2.8e-05 1/K
4. CCC[N+](=O)[O-] [1-nitropropane]  0.00111 ± 2.7e-05 1/K
5. N#Cc1ccccc1 [benzonitrile]  0.000837 ± 2.1e-05 1/K
6. O=[N+]([O-])c1ccccc1 [nitrobenzene]  0.000821 ± 2e-05 1/K

same assay, conditions: 328.15 K; 15000 kPa; Liquid; DSC

In order of rising “isobaric coefficient of expansion” value:
1. O=[N+]([O-])c1ccccc1 [nitrobenzene]  0.000802 ± 2e-05 1/K
2. N#Cc1ccccc1 [benzonitrile]  0.000819 ± 2e-05 1/K
3. CCC[N+](=O)[O-] [1-nitropropane]  0.00107 ± 2.6e-05 1/K
4. CC[N+](=O)[O-] [nitroethane]  0.00113 ± 2.8e-05 1/K
5. C[N+](=O)[O-] [nitromethane]  0.00121 ± 3e-05 1/K
6. CCC#N [propanenitrile]  0.00127 ± 3.1e-05 1/K

same assay, conditions: 328.15 K; 20000 kPa; Liquid; DSC

In order of falling “isobaric coefficient of expansion” value:
1. CCC#N [propanenitrile]  0.00122 ± 3e-05 1/K
2. C[N+](=O)[O-] [nitromethane]  0.00117 ± 2.9e-05 1/K
3. CC[N+](=O)[O-] [nitroethane]  0.0011 ± 2.7e-05 1/K
4. CCC[N+](=O)[O-] [1-nitropropane]  0.00104 ± 2.5e-05 1/K
5. N#Cc1ccccc1 [benzonitrile]  0.000808 ± 2e-05 1/K
6. O=[N+]([O-])c1ccccc1 [nitrobenzene]  0.000787 ± 1.9e-05 1/K

same assay, conditions: 328.15 K; 25000 kPa; Liquid; DSC

In order of rising “isobaric coefficient of expansion” value:
1. O=[N+]([O-])c1ccccc1 [nitrobenzene]  0.000774 ± 1.9e-05 1/K
2. N#Cc1ccccc1 [benzonitrile]  0.000794 ± 1.9e-05 1/K
3. CCC[N+](=O)[O-] [1-nitropropane]  0.00101 ± 2.5e-05 1/K
4. CC[N+](=O)[O-] [nitroethane]  0.00107 ± 2.6e-05 1/K
5. C[N+](=O)[O-] [nitromethane]  0.00114 ± 2.8e-05 1/K
6. CCC#N [propanenitrile]  0.00118 ± 2.9e-05 1/K

same assay, conditions: 328.15 K; 30000 kPa; Liquid; DSC

In order of rising “isobaric coefficient of expansion” value:
1. O=[N+]([O-])c1ccccc1 [nitrobenzene]  0.000761 ± 1.9e-05 1/K
2. N#Cc1ccccc1 [benzonitrile]  0.000782 ± 1.9e-05 1/K
3. CCC[N+](=O)[O-] [1-nitropropane]  0.000981 ± 2.4e-05 1/K
4. CC[N+](=O)[O-] [nitroethane]  0.00104 ± 2.6e-05 1/K
5. C[N+](=O)[O-] [nitromethane]  0.00112 ± 2.7e-05 1/K
6. CCC#N [propanenitrile]  0.00114 ± 2.8e-05 1/K

same assay, conditions: 328.15 K; 35000 kPa; Liquid; DSC

In order of falling “isobaric coefficient of expansion” value:
1. CCC#N [propanenitrile]  0.00111 ± 2.7e-05 1/K
2. C[N+](=O)[O-] [nitromethane]  0.0011 ± 2.7e-05 1/K
3. CC[N+](=O)[O-] [nitroethane]  0.00103 ± 2.5e-05 1/K
4. CCC[N+](=O)[O-] [1-nitropropane]  0.000957 ± 2.3e-05 1/K
5. N#Cc1ccccc1 [benzonitrile]  0.000772 ± 1.9e-05 1/K
6. O=[N+]([O-])c1ccccc1 [nitrobenzene]  0.00075 ± 1.8e-05 1/K

same assay, conditions: 328.15 K; 40000 kPa; Liquid; DSC

In order of falling “isobaric coefficient of expansion” value:
1. C[N+](=O)[O-] [nitromethane]  0.00107 ± 2.6e-05 1/K
2. CCC#N [propanenitrile]  0.00107 ± 2.6e-05 1/K
3. CC[N+](=O)[O-] [nitroethane]  0.001 ± 2.5e-05 1/K
4. CCC[N+](=O)[O-] [1-nitropropane]  0.00093 ± 2.3e-05 1/K
5. N#Cc1ccccc1 [benzonitrile]  0.00076 ± 1.9e-05 1/K
6. O=[N+]([O-])c1ccccc1 [nitrobenzene]  0.000739 ± 1.8e-05 1/K

same assay, conditions: 328.15 K; 45000 kPa; Liquid; DSC

In order of falling “isobaric coefficient of expansion” value:
1. C[N+](=O)[O-] [nitromethane]  0.00105 ± 2.6e-05 1/K
2. CCC#N [propanenitrile]  0.00105 ± 2.6e-05 1/K
3. CC[N+](=O)[O-] [nitroethane]  0.000984 ± 2.4e-05 1/K
4. CCC[N+](=O)[O-] [1-nitropropane]  0.000912 ± 2.2e-05 1/K
5. N#Cc1ccccc1 [benzonitrile]  0.000751 ± 1.8e-05 1/K
6. O=[N+]([O-])c1ccccc1 [nitrobenzene]  0.000726 ± 1.8e-05 1/K

same assay, conditions: 328.15 K; 50000 kPa; Liquid; DSC

In order of falling “isobaric coefficient of expansion” value:
1. C[N+](=O)[O-] [nitromethane]  0.00103 ± 2.5e-05 1/K
2. CCC#N [propanenitrile]  0.00102 ± 2.5e-05 1/K
3. CC[N+](=O)[O-] [nitroethane]  0.000964 ± 2.4e-05 1/K
4. CCC[N+](=O)[O-] [1-nitropropane]  0.000894 ± 2.2e-05 1/K
5. N#Cc1ccccc1 [benzonitrile]  0.000736 ± 1.8e-05 1/K
6. O=[N+]([O-])c1ccccc1 [nitrobenzene]  0.000716 ± 1.8e-05 1/K

same assay, conditions: 328.15 K; 55000 kPa; Liquid; DSC

In order of rising “isobaric coefficient of expansion” value:
1. O=[N+]([O-])c1ccccc1 [nitrobenzene]  0.000707 ± 1.7e-05 1/K
2. CCC[N+](=O)[O-] [1-nitropropane]  0.00088 ± 2.2e-05 1/K
3. CC[N+](=O)[O-] [nitroethane]  0.000944 ± 2.3e-05 1/K
4. CCC#N [propanenitrile]  0.001 ± 2.5e-05 1/K
5. C[N+](=O)[O-] [nitromethane]  0.00101 ± 2.5e-05 1/K

same assay, conditions: 338.15 K; 5000 kPa; Liquid; DSC

In order of rising “isobaric coefficient of expansion” value:
1. N#Cc1ccccc1 [benzonitrile]  0.000863 ± 2.1e-05 1/K
2. CCC[N+](=O)[O-] [1-nitropropane]  0.00119 ± 2.9e-05 1/K
